According to patent US7060451B2, “Methods for screening GABA-modulatory compounds for specified pharmacological activities” (Neurogen Corporation, priority 1999, dated 2006):

Experiments:
[1] = target: GABAA receptors (benzodiazepine site, Ro15-1788 binding sites), rat cortex; assay: Ro15-1788 competition binding assay, rat cortex membranes; conditions: displacement of 3H Ro15-1788, read-out: Ro15-1788 binding, K1
Procedure: Rat cortex membranes are prepared by homogenizing one or two previously frozen rat cortexes in 30 ml of 25 mM Tris Buffer, pH 7.4. The homogenate is centrifuged for 10 minutes at 500× g. The supernatant is then transferred to a clean centrifuge tube and the pellet discarded. The supernatant is spun for 20 minutes at 48,000× g. The supernatant from this spin is discarded and the pellet is resuspended in 30 ml of 25 mM Tris Buffer, pH 7.4 and centrifuged for an additional 10 minutes at 48,000× g. The supernatant from the final spin is discarded and the membrane pellet is resuspended in 100 mL Tris buffer per gram of cortex used.
The cortex membrane preparation is used to perform either percent inhibition or competition binding assays. In order to determine percent inhibition 300 μl of resuspended membranes are mixed with 200 μl ^3H labeled Ro15-1788 (final concentration 2.5 nM) and incubated for 1 hour on ice in the presence of 2 μl test compound in DMSO (final concentration 4 μM). Membranes are harvested onto untreated filtermats. The filtermats are dried and the ^3H Ro15-1788 signal is counted in a scintillation counter. Nonspecific binding is determined by displacement of ^3H Ro15-1788 with 10 μM Diazepam (RBI) or any other compound known to bind tightly at the benzodiazepine site.
K1 values are calculated according to the Cheng-Prussof equation.

[2] = target: α1β2γ2 GABAA subtype receptor (Homo sapiens, UniProt P14867+P18507); assay: oocyte electrophysiology, two electrode voltage-clamp, potentiation of GABA current; format: cell-based; conditions: Xenopus oocytes, human subunits, GABA EC10; for Emax: read-out: oocyte electrophysiology maximum potentiation (%) α1β2γ2
α1β2γ2 GABAA subtype receptor, sequence (P14867 28-456): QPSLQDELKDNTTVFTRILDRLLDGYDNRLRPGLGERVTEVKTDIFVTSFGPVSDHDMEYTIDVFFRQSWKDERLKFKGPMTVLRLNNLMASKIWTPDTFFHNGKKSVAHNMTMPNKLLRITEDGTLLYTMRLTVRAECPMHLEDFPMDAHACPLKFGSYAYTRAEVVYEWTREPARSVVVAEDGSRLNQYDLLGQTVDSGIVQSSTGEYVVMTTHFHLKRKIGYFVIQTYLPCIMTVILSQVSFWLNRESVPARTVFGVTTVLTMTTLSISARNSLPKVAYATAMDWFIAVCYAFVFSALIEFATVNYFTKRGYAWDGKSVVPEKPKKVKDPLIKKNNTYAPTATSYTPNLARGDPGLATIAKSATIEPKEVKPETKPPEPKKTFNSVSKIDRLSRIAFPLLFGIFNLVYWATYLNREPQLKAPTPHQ
α1β2γ2 GABAA subtype receptor, sequence (P47870 25-512 partner limits assumed): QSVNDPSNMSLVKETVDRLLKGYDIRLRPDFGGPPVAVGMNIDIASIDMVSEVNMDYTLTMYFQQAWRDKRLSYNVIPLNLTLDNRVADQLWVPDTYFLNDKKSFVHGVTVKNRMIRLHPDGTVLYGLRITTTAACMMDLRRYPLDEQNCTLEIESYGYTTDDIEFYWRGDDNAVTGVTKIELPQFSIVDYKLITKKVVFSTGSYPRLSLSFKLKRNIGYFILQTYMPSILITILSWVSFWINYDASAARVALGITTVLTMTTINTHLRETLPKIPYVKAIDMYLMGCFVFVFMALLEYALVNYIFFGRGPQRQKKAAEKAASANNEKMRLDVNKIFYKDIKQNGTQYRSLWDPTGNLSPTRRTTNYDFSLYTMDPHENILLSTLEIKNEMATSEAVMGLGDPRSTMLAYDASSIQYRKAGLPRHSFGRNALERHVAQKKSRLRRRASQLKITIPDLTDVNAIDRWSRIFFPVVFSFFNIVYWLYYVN
α1β2γ2 GABAA subtype receptor, sequence (P18507 40-475): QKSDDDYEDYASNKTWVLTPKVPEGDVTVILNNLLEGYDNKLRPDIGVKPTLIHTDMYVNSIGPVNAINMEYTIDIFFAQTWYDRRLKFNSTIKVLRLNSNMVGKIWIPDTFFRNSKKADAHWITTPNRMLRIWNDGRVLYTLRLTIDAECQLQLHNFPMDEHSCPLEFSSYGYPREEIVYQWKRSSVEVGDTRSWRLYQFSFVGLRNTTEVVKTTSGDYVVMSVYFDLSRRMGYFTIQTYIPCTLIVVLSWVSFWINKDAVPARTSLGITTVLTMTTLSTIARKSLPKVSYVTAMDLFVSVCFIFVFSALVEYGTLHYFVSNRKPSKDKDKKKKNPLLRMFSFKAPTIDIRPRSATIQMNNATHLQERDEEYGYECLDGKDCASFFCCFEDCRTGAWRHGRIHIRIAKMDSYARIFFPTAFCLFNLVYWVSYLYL
Procedure: (§1) Assays are carried out as described previously in White and Gurley, 1995 and White, et al., 1995. Xenopus laevis oocytes are enzymatically isolated and injected with non-polyadenylated cRNA for human derived α, β and γ GABAA subunits, respectively. In more preferred embodiments cRNA for the α1β2γ2, α2β3γ2, α3β3γ2, and α5β3γ2 subunit combinations are injected. Only one of these subunit combinations is injected per cell. For each subunit combination, sufficient message is injected to result in current amplitudes of >10 nA when 1 μM GABA is applied. Electrophysiological recordings are carried out using the two electrode voltage-clamp technique at a membrane holding potential of −70 mV.
(§2) Compounds are evaluated against a GABA concentration that evokes <10% (EC10) of the maximal evocable GABA current. Each oocyte is exposed to increasing concentrations of compound in order to evaluate a concentration/effect relationship.
(§3) Specificity of a compound for the Ro15-1788 site is determined following completion of the concentration/effect curve. After washing the oocyte sufficiently to remove previously applied compound, the oocyte is exposed to GABA and 1 μM Ro15-1788, followed by exposure to GABA, 1 μM Ro15-1788, and compound. Percent change due to addition of compound is calculated as described above. Any percent change observed in the presence of Ro15-1788 is subtracted from the percent changes in current amplitude observed in the absence of 1 μM Ro15-1788. These net values are used for the calculation of average activity and EC50 values.
(§4) To evaluate average activity and EC50 values, the concentration/effect data are averaged across cells and fit to the logistic equation. Average values are reported as mean ±standard error.

[3] = target: α5β3γ2 GABAA subtype receptor (Homo sapiens, UniProt P18507+P31644); assay: as above; format: cell-based; conditions: Xenopus oocytes, human subunits, GABA EC10; for Emax: read-out: oocyte electrophysiology maximum potentiation (%) α5β3γ2
α5β3γ2 GABAA subtype receptor, sequence (P31644 32-462): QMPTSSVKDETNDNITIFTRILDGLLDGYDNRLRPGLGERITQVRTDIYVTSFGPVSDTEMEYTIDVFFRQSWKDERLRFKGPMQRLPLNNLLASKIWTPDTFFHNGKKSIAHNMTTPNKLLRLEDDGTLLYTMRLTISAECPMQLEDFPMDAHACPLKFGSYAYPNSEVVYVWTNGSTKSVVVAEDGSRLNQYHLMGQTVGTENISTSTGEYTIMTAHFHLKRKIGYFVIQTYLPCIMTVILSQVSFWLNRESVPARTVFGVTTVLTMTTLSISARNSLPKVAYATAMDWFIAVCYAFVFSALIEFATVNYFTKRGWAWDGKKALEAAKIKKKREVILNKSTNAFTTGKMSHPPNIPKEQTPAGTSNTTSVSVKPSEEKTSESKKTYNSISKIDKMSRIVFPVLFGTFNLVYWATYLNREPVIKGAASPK
α5β3γ2 GABAA subtype receptor, sequence (P28472 26-473 partner): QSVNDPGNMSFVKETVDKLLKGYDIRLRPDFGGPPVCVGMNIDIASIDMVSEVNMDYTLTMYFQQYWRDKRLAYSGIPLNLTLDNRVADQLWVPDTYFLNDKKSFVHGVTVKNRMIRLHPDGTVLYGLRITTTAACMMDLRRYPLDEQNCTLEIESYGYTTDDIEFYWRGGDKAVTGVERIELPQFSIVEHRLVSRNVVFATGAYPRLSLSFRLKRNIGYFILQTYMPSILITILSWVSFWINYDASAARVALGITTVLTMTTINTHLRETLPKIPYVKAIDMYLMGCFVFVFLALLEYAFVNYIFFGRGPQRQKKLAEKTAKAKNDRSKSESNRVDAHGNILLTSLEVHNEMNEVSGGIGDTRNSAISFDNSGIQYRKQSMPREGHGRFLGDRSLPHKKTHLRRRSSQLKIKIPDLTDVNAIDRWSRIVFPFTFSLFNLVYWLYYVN
α5β3γ2 GABAA subtype receptor, sequence (P18507 40-475): as the sequence (P18507 40-475) above
Procedure: as §1, §2, §3, §4

[4] = target: α2β3γ2 GABAA subtype receptor (Homo sapiens, UniProt P18507+P47869); assay: as above; format: cell-based; conditions: Xenopus oocytes, human subunits, GABA EC10
α2β3γ2 GABAA subtype receptor, sequence (P47869 29-451): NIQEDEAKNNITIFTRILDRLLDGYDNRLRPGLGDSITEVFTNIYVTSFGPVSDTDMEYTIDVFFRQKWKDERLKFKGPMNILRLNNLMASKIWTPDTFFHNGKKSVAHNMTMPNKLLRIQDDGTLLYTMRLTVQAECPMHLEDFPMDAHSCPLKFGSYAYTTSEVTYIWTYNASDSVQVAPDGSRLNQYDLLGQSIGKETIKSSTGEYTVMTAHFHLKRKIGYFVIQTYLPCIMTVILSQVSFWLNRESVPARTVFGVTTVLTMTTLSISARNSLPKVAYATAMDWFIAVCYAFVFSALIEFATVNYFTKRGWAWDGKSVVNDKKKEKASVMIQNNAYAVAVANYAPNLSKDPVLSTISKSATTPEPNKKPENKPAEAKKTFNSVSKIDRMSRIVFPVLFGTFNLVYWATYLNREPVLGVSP
α2β3γ2 GABAA subtype receptor, sequence (P28472 26-473 partner): as the sequence (P28472 26-473 partner) above
α2β3γ2 GABAA subtype receptor, sequence (P18507 40-475): as the sequence (P18507 40-475) above
Procedure: as §1, §2, §3, §4

[5] = target: α3β3γ2 GABAA subtype receptor (Homo sapiens, UniProt P18507+P34903); assay: as above; format: cell-based; conditions: Xenopus oocytes, human subunits, GABA EC10
α3β3γ2 GABAA subtype receptor, sequence (P34903 29-492): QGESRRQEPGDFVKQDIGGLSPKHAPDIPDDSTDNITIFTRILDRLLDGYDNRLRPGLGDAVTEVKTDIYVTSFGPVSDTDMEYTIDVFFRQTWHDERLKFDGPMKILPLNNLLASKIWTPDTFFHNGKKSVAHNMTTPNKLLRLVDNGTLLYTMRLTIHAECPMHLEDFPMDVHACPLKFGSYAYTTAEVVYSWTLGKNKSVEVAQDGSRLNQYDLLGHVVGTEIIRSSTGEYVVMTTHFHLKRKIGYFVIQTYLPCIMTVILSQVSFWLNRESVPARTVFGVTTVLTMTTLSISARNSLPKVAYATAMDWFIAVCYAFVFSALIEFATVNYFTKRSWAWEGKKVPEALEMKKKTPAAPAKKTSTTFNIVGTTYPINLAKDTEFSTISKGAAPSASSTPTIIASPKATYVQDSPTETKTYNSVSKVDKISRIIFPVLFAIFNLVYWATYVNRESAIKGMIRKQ
α3β3γ2 GABAA subtype receptor, sequence (P28472 26-473 partner): as the sequence (P28472 26-473 partner) above
α3β3γ2 GABAA subtype receptor, sequence (P18507 40-475): as the sequence (P18507 40-475) above
Procedure: as §1, §2, §3, §4

rats [6] = assay: spontaneous locomotor activity; format: in vivo; conditions: rat
Procedure: Spontaneous locomotor activity can be measured to determine sedative effects of compounds. Locomotor activity is measured in eight computerized Digiscan-16 Animal Activity Monitors (Omnitech Electronics, Columbus, Ohio) equipped with 48 infrared photocell emitters and detectors. Each box is constructed of Plexiglas sides and floor. Horizontal activity is detected by a set of horizontal sensors on the front to back walls and a second group of sensors on the side to side walls located 5 cm above the cage floor. Vertical activity is detected by a third set of sensors on the side to side walls located 13.5 cm above the cage floor. The rats are tested in the presence of white noise (62 dB) and red St light (60 watt).
Test compound is administered IV in a 50% PEG vehicle 5 minutes prior to the test session. A range of compound doses is typically used and 6 to 8 rats are tested at each dose. The animal's movement time, vertical activity, and total distance traveled are tracked over a 15 minute test session. A sedative, or hypnotic, effect in the spontaneous locomotor activity model is defined by a decrease in any two of these three measures relative to animals given vehicle alone.

rats [7] = assay: elevated plus maze; format: in vivo; conditions: rat, IV, statistically significant response (anxiolytic effect)
Procedure: The elevated plus maze model capitalizes on rats' innate fear of open, elevated places. The test apparatus is an elevated plus maze consisting of two open arms and two closed arms. A rat will naturally chose to spend more time on the closed arms of the maze than on the open arms but that if an efficacious anxiolytic compound is administered to the rat prior to the test the amount it of time the rat spends in the open arms is increased.
Test compound is administered IV in a 50% PEG (polyethylene glycol) vehicle 5 minutes prior to the test session. A range of compound doses is typically used and 8-10 rats are tested at each dose. The rat is placed in the center of the maze facing one of the open arms. The animal's locomotion is tracked over a five minute test session using photocells interfaced to a computer. The computer measures the number of entries into each arm and the time spent on each arm. An anxiolytic effect in the elevated plus maze model is defined by an increase in the percentage of time spent on the open arms in compound versus vehicle treated animals.

rats [8] = assay: Porsolt forced swim test; format: in vivo; conditions: rat, administered IV, statistically significant response
Description: The effects measured in this model have been correlated to antidepressant efficacy for drugs. The paradigm of this model is that an effective antidepressant compound will cause a rat to make greater attempts to escape a water-filled cylinder than a rat given vehicle only.
Animals used in this study were non-naive male Sprague Dawley Rats (SASCO, St. Louis) weighing between 280-350 grams. The test apparatus consists of 6 clear Plexiglas cylinders 40 cm high×19 cm wide. Cylinders are filled to 18 cm with 25° C. water. Each rat is placed in a cylinder for a 15 minute training session. Following either subchronic or acute dosing of either vehicle (0.5% methylcellulose) of compound, animals are brought back 24 hours later for a 5 minute test session. These test session is videotaped for later scoring.
Subchronic dosing consists of administering drug three times in the 24-hour period between training and testing. The drug is administered 24 hrs., 5 hrs., and 1 hr. prior to the test session. Acute dosing consists of administering the drug once, 1 hour prior to the test session. Scoring is done using a time-sampling computer program written in Visual Basic and run in DOS. […] These sampling score are then converted into percentages of the test session.

rats [9] = assay: step-down passive avoidance; format: in vivo; conditions: rat; for cognitive model (step-down passive avoidance), minimal efficacious dose: cognitive enhancement
Description: In step-down passive avoidance a rat is placed on a platform located in the center of an electrified grid floor that is contained within a large (45 cm×45 cm×50 cm) white translucent Plexiglas® enclosure. The natural inclination of the rat is to step off the platform and investigate its surroundings. […] Each time the animal steps off the platform it receives a mild foot shock of 2 mAmps×6 sec. Following each shock the animal is removed from the box, placed in its cage for a one minute inter-trial interval, and then returned to the platform. The latency to step down on each trial, the number of trials taken to reach criterion during training and the retention latency are collected.
Testing is conducted approximately 24 hrs. after training. Drug-free animals are placed on the platform in the box in which they will have been trained and the latency to step down onto the grid floor is recorded for one trial as a measure of memory retention.

[10] = IV, sedation as side effect (Tables V and IX)
[11] = IV, hypnotic effect (Table VII)

Compound: Cc1nnc2n1-c1ccc(Cl)cc1C(c1ccccc1)=NC2 [Alprazolam, reference compound]
- Ki [1]: 3.3 nM
- oocyte electrophysiology maximum potentiation (%) α1β2γ2 [2]: 327%
- oocyte electrophysiology maximum potentiation (%) α5β3γ2 [3]: 206%
- oocyte electrophysiology maximum potentiation (%) α2β3γ2 [4]: 333%
- oocyte electrophysiology maximum potentiation (%) α3β3γ2 [5]: 774%
- spontaneous locomotor activity, minimal efficacious dose (rats [6]; [10]): 0.125 mg/kg
- elevated plus maze, minimal efficacious dose (rats [7]): 0.0625 mg/kg

Compound: CC(C)(C)OC(=O)c1ncn2c1C1CCCN1C(=O)c1c(Br)cccc1-2 (stereo not shown) [Ro16-6028, reference compound]
- Ki [1]: 0.48 nM
- EC50 [2]: 3 nM
- oocyte electrophysiology maximum potentiation (%) α1β2γ2 [2]: 40%
- EC50 [3]: 3 nM
- oocyte electrophysiology maximum potentiation (%) α5β3γ2 [3]: 64%
- EC50 [4]: 5 nM
- oocyte electrophysiology maximum potentiation (%) α2β3γ2 [4]: 37%
- EC50 [5]: 5 nM
- oocyte electrophysiology maximum potentiation (%) α3β3γ2 [5]: 76%
- Porsolt swim test, minimal efficacious dose (rats [8]): 1 mg/kg
- spontaneous locomotor activity, minimal efficacious dose (rats [6]; [10]): 0.06 mg/kg

Compound: Cc1ccc(-c2nc3ccc(C)cn3c2CC(=O)N(C)C)cc1 [Zolpidem, reference compound]
- Ki [1]: 48 nM
- step-down passive avoidance, minimal efficacious dose (rats [9]; IV, cognitive impairment side effect (Table VII)): 0.5 mg/kg
- oocyte electrophysiology maximum potentiation (%) α1β2γ2 [2]: 263%
- oocyte electrophysiology maximum potentiation (%) α2β3γ2 [4]: 350%
- oocyte electrophysiology maximum potentiation (%) α3β3γ2 [5]: 882%
- spontaneous locomotor activity, minimal efficacious dose (rats [6]; [11]): 0.25 mg/kg

Compound: O=c1c(-c2ccccc2F)nc2c[nH]c3ccccc3n1-2 [compound 2]
- Ki [1]: 10 nM
- oocyte electrophysiology maximum potentiation (%) α1β2γ2 [2]: 18%
- Emax [3]: -11%
- oocyte electrophysiology maximum potentiation (%) α2β3γ2 [4]: 40%
- oocyte electrophysiology maximum potentiation (%) α3β3γ2 [5]: 39%
- spontaneous locomotor activity, minimal efficacious dose (rats [6]; in vivo, iv, 15 min): 4 mg/kg
- elevated plus maze, minimal efficacious dose (rats [7]): 0.5 mg/kg

Compound: CNCc1ccc(NC(=O)c2c[nH]c3c2C(=O)CCCC3)cc1 [compound 4]
- oocyte electrophysiology maximum potentiation (%) α5β3γ2 [3]: 38%
- Emax [3]: 0%
- Porsolt swim test, minimal efficacious dose (rats [8]): 20 mg/kg
- elevated plus maze, minimal efficacious dose (rats [7]): 0.5 mg/kg

Compound: O=C(Nc1cccc(F)c1)c1c[nH]c2c(c1=O)CCC2 [compound 5]
- Ki [1]: 8.3 nM
- Emax [2]: 0%
- Emax [3]: 0%
- oocyte electrophysiology maximum potentiation (%) α2β3γ2 [4]: 44%
- oocyte electrophysiology maximum potentiation (%) α3β3γ2 [5]: 44%
- elevated plus maze, minimal efficacious dose (rats [7]): 0.5 mg/kg

Compound: COc1ccc(NC(=O)c2c[nH]c3c2C(=O)CC(C)(C)C3)c(F)c1 [compound 6]
- Ki [1]: 11 nM
- step-down passive avoidance, minimal efficacious dose (rats [9]; in vivo, iv, 24 h): 4 mg/kg
- oocyte electrophysiology maximum potentiation (%) α1β2γ2 [2]: 25%
- oocyte electrophysiology maximum potentiation (%) α5β3γ2 [3]: 42%
- oocyte electrophysiology maximum potentiation (%) α2β3γ2 [4]: 72%
- oocyte electrophysiology maximum potentiation (%) α3β3γ2 [5]: 95%
- spontaneous locomotor activity, minimal efficacious dose (rats [6]; [11]): 0.25 mg/kg

Compound: O=c1[nH]c2c(n1-c1nc3ccc(F)c(F)c3o1)CCCCC2 [compound 7]
- Ki [1]: 3 nM
- oocyte electrophysiology maximum potentiation (%) α1β2γ2 [2]: 18%
- Emax [3]: -23%
- oocyte electrophysiology maximum potentiation (%) α2β3γ2 [4]: 51%
- oocyte electrophysiology maximum potentiation (%) α3β3γ2 [5]: 83%
- spontaneous locomotor activity, minimal efficacious dose (rats [6]; [11]): 0.125 mg/kg

Compound: CC1CC(=O)c2c(C(=O)Nc3ccc(F)cc3)c[nH]c2C1 (stereo not shown) [compound 8]
- Ki [1]: 24 nM
- oocyte electrophysiology maximum potentiation (%) α1β2γ2 [2]: 17%
- oocyte electrophysiology maximum potentiation (%) α5β3γ2 [3]: 16%
- oocyte electrophysiology maximum potentiation (%) α2β3γ2 [4]: 42%
- oocyte electrophysiology maximum potentiation (%) α3β3γ2 [5]: 61%
- spontaneous locomotor activity, minimal efficacious dose (rats [6]; [11]): 0.5 mg/kg

Compound: c1cc2c(cc1-c1ncc3[nH]c4c(c3n1)CCCC4)OCO2 [compound 9]
- Ki [1]: 7.8 nM
- step-down passive avoidance, minimal efficacious dose (rats [9]; in vivo, iv, 24 h): 0.5 mg/kg
- oocyte electrophysiology maximum potentiation (%) α1β2γ2 [2]: 33%
- Emax [3]: < 10%
- oocyte electrophysiology maximum potentiation (%) α2β3γ2 [4]: 53%
- oocyte electrophysiology maximum potentiation (%) α3β3γ2 [5]: 23%
- spontaneous locomotor activity, minimal efficacious dose (rats [6]; [11]): 0.5 mg/kg

Compound: O=c1c2c[nH]c3ccccc3n-2c(=O)n1-c1ccc(F)cc1 [compound 10]
- Ki [1]: 10 nM
- cognitive model (step-down passive avoidance), minimal efficacious dose (rats [9]; IV): 0.25 mg/kg
- Emax [2]: 0%
- Emax [3]: -27%
- oocyte electrophysiology maximum potentiation (%) α2β3γ2 [4]: 22%
- oocyte electrophysiology maximum potentiation (%) α3β3γ2 [5]: 23%

Compound: O=C(Nc1ccc(OCCO)cc1)c1c[nH]c2c1C(=O)CCC2 [compound 12]
- Ki [1]: 5.4 nM
- cognitive model (step-down passive avoidance), minimal efficacious dose (rats [9]; IV): 0.06 mg/kg
- oocyte electrophysiology maximum potentiation (%) α1β2γ2 [2]: 15%
- Emax [3]: -12%
- oocyte electrophysiology maximum potentiation (%) α2β3γ2 [4]: 63%
- oocyte electrophysiology maximum potentiation (%) α3β3γ2 [5]: 82%
